Results: article PMC12291851, “Hydrogen Sulfide (H2S)-Donating Formyl Peptide Receptor 2 (FPR2) Agonists: Design, Synthesis, and Biological Evaluation in Primary Mouse Microglia Culture” (Antioxidants, 2025)

Experiments:
[1] = Cell-free H2S release fluorescence assay with probe 9 (7-azido-4-methylcoumarin); assay type: physicochemical; settings: PBS/DMSO 10%, 37 °C, probe 9 100 μM
Description: The H2S release fluorescence assay was carried out in a final volume of 100 μL PBS/DMSO 10% in black 96-well plates. Solutions with decreasing concentrations of each tested compound were prepared in PBS/DMSO 10%. Then, 50 μL of each solution was dispensed in triplicate in each well. Starting from a 10 mM stock solution, a 200 μM solution of probe 9 was prepared and stored in the dark until 50 μL was dispensed in each well. Blank wells containing only the probe at 100 μM in 100 μL of PBS/DMSO 10% are also prepared. A H2S calibration curve was obtained by incubating solutions of NaSH with the probe under the same conditions, although a different plate was used to minimize interferences due to the diffusion of rapidly released H2S. After 24 h and 48 h incubation in a humidified incubator at 37 °C, 5% CO2, fluorescence reads are obtained from each well with a plate reader TECAN M1000 Pro (Tecan, Männedorf, Switzerland), at λex = 350 nm and λem = 440 nm. Each experiment was replicated at least three times. The data were processed using Microsoft Excel (Microsoft, Redmond, WA, USA) and GraphPad Prism 7 (GraphPad Software, La Jolla, CA, USA).
Compound 9 is a turn-on fluorescent probe that features an azido moiety which can be reduced to amine by H2S, leading to the formation of the fluorescent derivative 7-amino-4-methylcoumarin 10 (λex = 350 nm and λem = 440 nm, Scheme 2). We included NaHS in the assay as a positive control and 3a as a negative control.

[2] = Cell-free MTT-based H2S release assay; assay type: physicochemical; settings: 24 h incubation in MEM with 10% DMSO
Description: Solutions at different concentrations of each compound in 100 µL of serum-free MEM/10% DMSO with 0.5 mg/mL 3-(4,5-dimethylthiazol-2yl)-2,5-diphenyltetrazolium bromide (MTT) were incubated for 5 h or 24 h in a humidified incubator at 37 °C in 5% CO2 atmosphere. The experimental design comprised blank wells containing only medium and MTT, and a H2S calibration curve obtained by incubating nine solutions at decreasing concentrations (100 µM to 0.01 µM) of NaHS in medium and MTT. At the end of incubation time, the supernatant was removed, the […] crystals were dissolved in 100 µL DMSO/EtOH (1:1 v/v), and absorbance values were read using a Victor 3 plate reader (PerkinElmer, Shelton, CT, USA) at 570 nm. H2S values are expressed as mean ± S.E.M. of the results of three independent experiments conducted in triplicate, and were plotted using GraphPad Prism 7.
To decipher such results and considering the redox properties of H2S, we questioned if H2S released by our compounds in the culture media could interfere with the conversion of MTT (3-[4,5-dimethylthiazol-2-yl]-2,5-diphenyl tetrazolium bromide) to formazan, which is usually related to cell viability. Thus, we ran cell-free experiments in which MTT was used as the substrate to capture the reductive action of H2S. We found, in agreement with Gerő et al., that some of our thioureas and thioamides reduced MTT to formazan after 24 h incubation in MEM with 10% DMSO.

HepG2 cells = test: Intracellular H2S release with WSP-1 probe; assay type: cell-based, human; settings: for intracellular H2S release, WSP-1 fluorescence signal vs vehicle: HepG2, tested concentrations 100-300 μM, 60 min
Description: All cell culture reagents were purchased from S.I.A.L. S.r.l. (Rome, Italy). WSP-1 (Washington State Probe-1, 3′-methoxy-3-oxo-3H-spiro[isobenzofuran-1,9′-xanthen]-6′-yl 2-(pyridine-2-yl-disulfanyl benzoate), was obtained from Cayman Chemical (Cayman, Ann Arbor, MI, USA). HepG2, human hepatocellular carcinoma cells, was obtained from American Type Culture Collection (ATCC, Bethesda, MD, USA). Human hepatocellular carcinoma cells (HepG2) were cultured in Minimum Essential Eagle’s Medium. This medium was supplemented with 10% (v/v) Fetal Bovine Serum, 1% (v/v) Glutamine and 1% (v/v) Penicillin-Streptomycin, 1% non-essential amino acids. Cells were cultivated at 37 °C with 5% CO2 at saturated humidity.
These experiments were carried out as already described. HepG2 cells were cultured up to about 90% confluence, and 24 h before the experiment cells were seeded into a 96-well flat bottom black plate (50,000 cells per well). After 24 h, the medium was replaced and cells were incubated at 37 °C for 30 min with a 10 mM solution of the fluorescent WSP-1 probe, which is highly sensitive for H2S detection. After incubation, the supernatant was removed and replaced with different concentrations (100, 200, and 300 µM) of the tested compounds dissolved in HBSS buffer. […] ADT 100 µM was used as a slow H2S-donor reference compound. Data were analyzed by one-way ANOVA for repeated measures, followed by post hoc Bonferroni’s multiple comparison test. Results are expressed as mean ± SEM of 3 independent experiments in triplicate. Statistical significance was accepted at a level of p < 0.05.
Next, we assessed the intracellular H2S release of thioureas and thioamides in HepG2 cells. The compounds were tested at different concentrations (100–300 μM) to evaluate if the release was dose-dependent. We also assayed ADT-OH and TIA as reference H2S-donors, and 3a as a negative control. The results were normalized to the fluorescence signal obtained with 100 μM ADT-OH.

SMILES	H2S release detected with probe 9 in aqueous media ([1]; 24 h incubation)	H2S release detected with probe 9 in aqueous media ([1]; 48 h incubation)	absorbance signal (MTT reduction to formazan) indicative of H2S release [2]	intracellular level of H2S vs reference H2S donor ADT (HepG2 cells; HepG2, at 200 and 300 μM, p < 0.001 vs. ADT)	intracellular H2S release, WSP-1 fluorescence signal vs vehicle (HepG2 cells)	levels of H2S release in HepG2 cells (HepG2 cells; summary of WSP-1 results)
N#Cc1ccc(C[C@H](NC(=O)Nc2ccc(F)cc2)C(=S)N2CCc3ccccc32)cc1 [7b, (S)-1-[3-(4-Cyanophenyl)-1-(indolin-1-yl)-1-thioxopropan-2-yl]-3-(4-fluorophenyl)urea]	detected H2S release	more intense	robust absorbance signal	more than the reference H2S donor ADT	significant fluorescence signal increase at all tested concentrations	very high levels of H2S release
N#Cc1ccc(C[C@H](NC(=O)Nc2ccc(Br)cc2)C(=S)N2CCc3ccccc32)cc1 [8b, (S)-1-(4-Bromophenyl)-3-[3-(4-cyanophenyl)-1-(indolin-1-yl)-1-thioxopropan-2-yl]urea]		limited capability to release H2S	below the assay’s detection limit		not statistically significant	
